# Read-outs that look alike come from different tables or passages of the source.
# Key:
# CAKI-1 = assay: NCI 60 five-dose screen CAKI-1; format: cell-based; conditions: Homo sapiens; for CC50: read-out: LC50 (the source's name) (converted)
# SK-OV-3 = assay: NCI 60 five-dose screen SK-OV-3; format: cell-based; conditions: Homo sapiens; for CC50: read-out: LC50 (the source's name) (converted)
# CCRF-CEM = assay: NCI 60 five-dose screen CCRF-CEM; format: cell-based; conditions: Homo sapiens; for CC50: read-out: LC50 (the source's name)
# RPMI-8226 = assay: NCI 60 five-dose screen RPMI-8226; format: cell-based; conditions: Homo sapiens; for CC50: read-out: LC50 (the source's name)
# MALME-3M = assay: NCI 60 five-dose screen MALME-3M; format: cell-based; conditions: Homo sapiens; for CC50: read-out: LC50 (the source's name) (converted)
# NCI-H23 = assay: NCI 60 five-dose screen NCI-H23; format: cell-based; conditions: Homo sapiens; for CC50: read-out: LC50 (the source's name) (converted)
# IGROV1 = assay: NCI 60 five-dose screen IGROV1; format: cell-based; conditions: Homo sapiens
# NCI-H522 = assay: NCI 60 five-dose screen NCI-H522; format: cell-based; conditions: Homo sapiens
# MOLT-4 = assay: NCI 60 five-dose screen MOLT-4; format: cell-based; conditions: Homo sapiens; for CC50: read-out: LC50 (the source's name)
# PC-3 = assay: NCI 60 five-dose screen PC-3; format: cell-based; conditions: Homo sapiens; for CC50: read-out: LC50 (the source's name) (converted)
# SK-MEL-2 = assay: NCI 60 five-dose screen SK-MEL-2; format: cell-based; conditions: Homo sapiens; for CC50: read-out: LC50 (the source's name) (converted)
# SNB-19 = assay: NCI 60 five-dose screen SNB-19; format: cell-based; conditions: Homo sapiens; for CC50: read-out: LC50 (the source's name) (converted)
# OVCAR-4 = assay: NCI 60 five-dose screen OVCAR-4; format: cell-based; conditions: Homo sapiens; for CC50: read-out: LC50 (the source's name) (converted)
# SR = assay: NCI 60 five-dose screen SR; format: cell-based, human; conditions: for GI50 / IC50 / CC50: Homo sapiens; for CC50: read-out: LC50 (the source's name)
structure (smiles),measurement,setting,value
COc1cc(Cn2c(C(F)(F)F)cc3c(Cl)ncnc32)ccn1 [NUCC-0226694],GI50,CAKI-1,7.24 µM
same,IC50,CAKI-1,13.8 µM
same,IC (TGI),CAKI-1,20.4 µM
same,CC50,CAKI-1,46.8 µM
same,GI50,SK-OV-3,17 µM
same,IC50,SK-OV-3,32.4 µM
same,IC (TGI),SK-OV-3,32.4 µM
same,CC50,SK-OV-3,61.7 µM
same,GI50,CCRF-CEM,3.16 µM
same,IC50,CCRF-CEM,5.37 µM
same,IC (TGI),CCRF-CEM,18.6 µM
same,CC50,CCRF-CEM,≥ 100 µM
same,GI50,RPMI-8226,15.5 µM
same,IC50,RPMI-8226,26.3 µM
same,IC (TGI),RPMI-8226,79.4 µM
same,CC50,RPMI-8226,≥ 100 µM
same,GI50,MALME-3M; Malme-3M,12.6 µM
same,IC50,MALME-3M; Malme-3M,25.7 µM
same,IC (TGI),MALME-3M; Malme-3M,25.7 µM
same,CC50,MALME-3M; Malme-3M,51.3 µM
same,GI50,NCI-H23,2.19 µM
same,IC50,NCI-H23,3.98 µM
same,IC (TGI),NCI-H23,4.9 µM
same,CC50,NCI-H23,13.5 µM
same,GI50,IGROV1; IGROV-1,1.78 µM
same,IC50,IGROV1; IGROV-1,3.16 µM
same,IC (TGI),IGROV1; IGROV-1,3.63 µM
same,CC50,"IGROV1; IGROV-1, read-out: LC50 (the source's name) (converted)",7.41 µM
same,GI50,NCI-H522,3.31 µM
same,IC50,NCI-H522,11 µM
same,IC (TGI),NCI-H522,15.1 µM
same,CC50,NCI-H522; read-out: LC50 (the source's name) (converted),50.1 µM
same,GI50,MOLT-4,3.31 µM
same,IC50,MOLT-4,4.57 µM
same,IC (TGI),MOLT-4,100 µM
same,CC50,MOLT-4,≥ 100 µM
same,GI50,PC-3,5.5 µM
same,IC50,PC-3,9.55 µM
same,IC (TGI),PC-3,20.9 µM
same,CC50,PC-3,58.9 µM
same,GI50,SK-MEL-2,10 µM
same,IC50,SK-MEL-2,21.9 µM
same,IC (TGI),SK-MEL-2,22.4 µM
same,CC50,SK-MEL-2,51.3 µM
same,GI50,SNB-19,11.7 µM
same,IC50,SNB-19,21.4 µM
same,IC (TGI),SNB-19,24 µM
same,CC50,SNB-19,49 µM
same,GI50,OVCAR-4,12 µM
same,IC50,OVCAR-4,22.9 µM
same,IC (TGI),OVCAR-4,26.9 µM
same,CC50,OVCAR-4,58.9 µM
same,TGI,SR,4 −log[M]
same,GI50,SR,3.63 µM
same,IC50,SR,4.79 µM
same,CC50,SR,≥ 100 µM
FC(F)(F)c1cc2c(Cl)ncnc2n1CCN1CCOCC1 [NUCC-0226680],GI50,CAKI-1; five-dose,27.5 µM
same,IC50,CAKI-1; five-dose,56.2 µM
same,IC (TGI),CAKI-1; five-dose,100 µM
same,CC50,CAKI-1; five-dose,≥ 100 µM
same,GI50,SK-OV-3; five-dose,100 µM
same,IC50,SK-OV-3; five-dose,100 µM
same,IC (TGI),SK-OV-3; five-dose,100 µM
same,CC50,SK-OV-3; five-dose,≥ 100 µM
same,GI50,CCRF-CEM; five-dose,16.6 µM
same,IC50,CCRF-CEM; five-dose,35.5 µM
same,IC (TGI),CCRF-CEM; five-dose,100 µM
same,CC50,CCRF-CEM; five-dose,≥ 100 µM
same,GI50,RPMI-8226; five-dose,31.6 µM
same,IC50,RPMI-8226; five-dose,46.8 µM
same,IC (TGI),RPMI-8226; five-dose,100 µM
same,CC50,RPMI-8226; five-dose,≥ 100 µM
same,GI50,"MALME-3M; MALME-3M, five-dose",21.9 µM
same,IC50,"MALME-3M; MALME-3M, five-dose",87.1 µM
same,IC (TGI),"MALME-3M; MALME-3M, five-dose",67.6 µM
same,CC50,"MALME-3M; MALME-3M, five-dose",≥ 100 µM
same,GI50,NCI-H23; five-dose,17.8 µM
same,IC50,NCI-H23; five-dose,37.2 µM
same,IC (TGI),NCI-H23; five-dose,74.1 µM
same,CC50,NCI-H23; five-dose,≥ 100 µM
same,GI50,"IGROV1; IGROV-1, five-dose",2.51 µM
same,IC50,"IGROV1; IGROV-1, five-dose",3.98 µM
same,IC (TGI),"IGROV1; IGROV-1, five-dose",7.59 µM
same,CC50,"IGROV1; IGROV-1, five-dose, read-out: LC50 (the source's name) (converted)",35.5 µM
same,GI50,NCI-H522; five-dose,1.48 µM
same,IC50,NCI-H522; five-dose,2.95 µM
same,IC (TGI),NCI-H522; five-dose,3.31 µM
same,GI50,MOLT-4; five-dose,5.75 µM
same,IC50,MOLT-4; five-dose,10.7 µM
same,IC (TGI),MOLT-4; five-dose,28.8 µM
same,CC50,MOLT-4; five-dose,≥ 100 µM
same,GI50,PC-3; five-dose,11.2 µM
same,IC50,PC-3; five-dose,19.1 µM
same,IC (TGI),PC-3; five-dose,36.3 µM
same,CC50,PC-3; five-dose,≥ 100 µM
same,GI50,SK-MEL-2; five-dose,17.4 µM
same,IC50,SK-MEL-2; five-dose,33.9 µM
same,IC (TGI),SK-MEL-2; five-dose,33.1 µM
same,CC50,SK-MEL-2; five-dose,64.6 µM
same,GI50,SNB-19; five-dose,15.5 µM
same,IC50,SNB-19; five-dose,28.8 µM
same,IC (TGI),SNB-19; five-dose,33.1 µM
same,CC50,SNB-19; five-dose,70.8 µM
same,GI50,OVCAR-4; five-dose,33.1 µM
same,IC50,OVCAR-4; five-dose,100 µM
same,IC (TGI),OVCAR-4; five-dose,100 µM
same,CC50,OVCAR-4; five-dose,≥ 100 µM
same,GI50,SR; five-dose,2.88 µM
same,IC50,SR; five-dose,4.37 µM
same,CC50,SR; five-dose,≥ 100 µM
same,TGI,SR; five-dose,4.9 −log[M]
